Measurements reported in patent publication US20030148259A1, “Method of identifying insulin secretion stimulating compounds, and the use of such compounds in treating insulin-secretion related disorders” (priority 2002, published 2003).
Ends that are not written are not given here.

What was measured:
[1] = test system: INS-1E cells; assay: Confocal microscopy imaging of [Ca2+]i in fluo-3 loaded cells; format: cell-based, rat
Procedure: INS-1E cells were incubated in medium containing 5 mM glucose and 5 μM fluo-3 AM for 30 minutes followed by 10 min in medium without fluo-3Cover slips were mounted in a superfusion chamber, which was superfused with physiological solution at 3 ml/min. A three-way solenoid valve system allowed for rapid exchange of solutions. The dead space of the system (from valve inlet to chamber) was -0.5 ml. The flow was increased to 6 ml/min 15 s prior to switching from control solution to experimental solutions and reduced back to 3 ml/min after return to normal solution. [Ca^2+]1 were recorded with a BioRad laser scanning confocal system (BioRad MRC 1024) attached to a Nikon Diaphot 200 inverted microscope equipped with Nikon Plan Apo 60×1.4 NA oil immersion objective. Fluo-3 was excited at 488 nm (15 mW krypton-argon mixed gas laser, intensity attenuated to 3%) and the emitted light was collected through a 522 nm narrow band filter. Images were obtained with the iris closed to the minimum size that was compatible with good image quality. For each image, 3× Kalman averaging was used. Images were stored and converted to pseudo-color images using Scion Image software (Scion Corporation, Maryland).
Ratios were calculated using the initial fluorescence F0, and the observed fluorescence F using the equation R=F/F0, and these ratios were subsequently converted into [Ca^2+]i using the equation: [Ca^2+]i=RxKD/((KD/resting [Ca^2+]i)−R). […] Resting [Ca^2+]i in these cells under the conditions of experiment was 35 nM. All experiments were carried out at room temperature (25° C.).

[2] = test system: S5 cells; assay: Screening for CICR by periodic amplification of Ca2+ signals in S5 cells; format: cell-based, rat; conditions: MBED 50 μM, FIG. 4
Procedure: A new type of β-cell, called the S5 cell, which is particularly suitable for use in screening CICR-active drugs in β-cells has been developed by the present inventor. The S5 cells can be obtained from INS-1E cells by adapting the latter to culture conditions where fetal bovine serum is reduced to 2.5% and 2-mercaptoethanol is increased to 500 μM. The S5 cells are more differentiated, more slowly growing than ordinary insulinoma cells, and performs more like normal β-cells.
The S5 cells used in the examples below were obtained by adapting the cells to the above culture conditions over 37 passages. These cells were cultured in RPMI 1640, with L-Glutamine (Life Technologies: Catalog. No. 21875-034), supplemented with HEPES (10 mM, Life Technologies. Catalog. No. 15630-049), and sodium pyruvate (1 mM, Life Technologies. Catalog No. 11360-039). 2.5% (v/v) heat-inactivated fetal bovine serum was added to this medium and the medium was aliquoted in 50 ml tubes. To this medium, 500 μM 2-mercaptoethanol (Life Technologies. Catalog. No. 31350-010) and penicillin (50 i.u./ml), streptomycin (50 μg/ml) (Life Technologies. Catalog. No. 15070-063) was added immediately before the medium was used for culture. 2-mercaptoethanol (50 mM, stock) was aliquoted and stored frozen in 100 μl portions and was thawed just before use. […]

[3] = test system: cAMP-PDEs; assay: Phosphodiesterase assay (cAMP-PDE activity in insulinoma cell fractions); format: biochemical, rat; conditions: for inhibition of cAMP-PDEs: methylxanthine 2.5 mM, FIG. 8D
Procedure: Rat insulinoma cells were detached from the flasks by trypsin-EDTA. The cells were homogenized in Tris buffer containing (in mM): Tris 10, sucrose 250, EDTA 1.0, phenylmethylsulphonyl fluoride 0.01 and benzamidine 1.0The homogenates were centrifuged (48,000 g, 20 min, 4° C.). Both soluble extracts and the pellet were assayed for cAMP-PDE activity with 0.5 μM 2,8-[^3H]-cyclic AMP as substrate (see Ahmad, M. et al., Br.J.Pharmacol., 129, 1228-1234 (2000) and Thompson, W. J. and Appleman, M. M., Biochemistry, 10, 311-316 (1971)). Assays were performed by the two-step radiometric assay under linear rate formation of product and where less than 10% of substrate is utilized. Activity was expressed as pmol/min/ml and percentage inhibition of the control value.

[4] = test system: INS-1E cells; assay: Insulin release from INS-1E cells (insulin ELISA); format: cell-based, rat
Procedure: Glucose-responsive clonal insulinoma cells (INS-1E) were cultured in RPMI-1640 medium supplemented with FBS (5%, v/v), penicillin (50 i.u. /ml), streptomycin (50 μg/ml), 2-mercaptoethanol (50 μM), HEPES (10 mM) and sodium pyruvate (1 mM) (Maechler, P. et al., IUBMB.Life 50, 27-31(2000). Medium was changed every other day.
INS-1E cells (200,000/ well) were seeded in 24-well plates and cultured for 6-7 days before using them for insulin release assay. On the day of experiment, cells were incubated in RPMI without glucose for 2 hours. Cells attached to the wells were then washed three times with warm (37° C.) medium (KRBH) containing (in mM): NaCl 140, NaHCO3 2, KCl 3.6, NaH2PO4 0.5, MgSO4 0.5, HEPES 10, CaCl2, 1.5, BSA 0.1% and incubated for 30 minutes at 37°. Cells were then incubated with 500 μl of the test solutions, by adding solution to one well at a time, every 20 sec. After one hour of incubation, 200 μl of supernatant was transferred to Eppendorf tubes, again one well at a time, every 20 sec. The collected materials were then centrifuged and supernatants were used for insulin ELISA.

[5] = test system: mouse islets; assay: Insulin release from perifused islets (radio immunoassay); format: cell-based; conditions: for stimulation of insulin secretion from islets: 2.5 mM caffeine, 6 μM MBED, FIG. 6; for insulin secretion rate: 40-min stimulation
Procedure: Normal lean mice (BALB/c, Bomholtgard, Ry, Denmark) weighing 20-25 g were starved overnight and islets isolated by collagenase digestion and dextran purification method (Shi, C. L., Cell Transplant. 6, 33-37 (1997)). Islets were then cultured overnight in RPMI 1640 medium containing 10% FBS, 11.2 mM glucose, 60 i.u./ml penicillin and 60 μg/ml gentamicin, in a water-saturated atmosphere of air and 5% CO2.
Groups of 50 islets were transferred to a perifusion chamber housed in an infant incubator at 37° C. They were perifused at a rate of 1 ml/ min with Krebs-Ringer bicarbonate buffer supplemented with 20 mM HEPES, 0.1% BSA, glucose and drugs as required. The buffer was continuously gassed with 95% 02 and 5% CO2. The islets were perifused for 30 min with this medium containing 2 mM glucose, followed by a 40-min stimulation with 11.2 mM glucose alone (control), or 11.2 mM glucose plus drugs. During the last five minutes of perifusion with 2 mM glucose, three samples of effluent were collected to measure basal rate of insulin secretion. After switching to the 11.2 mM glucose the effluent was sampled every minute for the first five minutes and then at the intervals of 5 minutes. The average rate of insulin secretion (ng/min/50 islets) was calculated by integrating individual perifusion profile. Insulin was measured by radio immunoassay using crystalline mouse insulin as standard (Shi, C. L. cited above).

[6] = test system: β-cells; assay: Screening for CICR-active agents by periodic amplification of Ca2+ signals in single β-cells (fura-2 microfluorometry); format: cell-based, mouse
[7] = test system: INS-1E cells; assay: Measurement of cAMP content; format: cell-based, rat; conditions: caffeine 0.25-3 mM
Procedure: INS-1E cells (20000 per well) were cultured for three days in 24 well plates. On the day of the experiments cells were washed and incubated for 30 min at 37° C. in the KRBH buffer containing 3 mM glucose. Cells were then washed again and solutions containing 11.2 mM glucose and test substances were added. After 10 min, incubations were terminated by removing the medium and precipitating cell protein in 80% ice-cold ethanol. Cells were then scraped and all contents of the wells were transferred to tubes. After centrifugation at 14,000 rpm for five min, the supernatants were collected and freeze-dried over-night. The cAMP content in each sample was determined with a radio ligand-binding assay using a bovine heart cAMP-binding protein as described by Pyne, N. J. and Tolan, D., Pyne, S. in Biochem.J 328 (Pt 2), 689-694 (1997).

[8] = methylxanthine 2.5 mM, 11.2 mM glucose, 1 hr, FIG. 8A/8C
[9] = Example 6, FIG. 3: 10 mM glucose

**Q.** What does the source list for `Cn1c2cnccc2c2c(Br)c(O)c(Br)cc21` [MBED, 5,7-dibromo-6-hydroxy-9-methylpyrido[3,4-b]indole]?
**A.** potency relative to caffeine in increasing [Ca2+]i [1]: more potent than caffeine; change in [Ca2+]i ([1]; MBED 50 μM, FIG. 7): increased [Ca^2+]i; CICR (periodic amplification of Ca2+ signals) [2]: CICR can clearly be identified; Cytosolic cAMP-PDE activity ([3]; MBED 5 μM): 27.7 ± 2.5 pmol/min/mL; Membrane cAMP-PDE activity ([3]; MBED 5 μM): 26.5 pmol/min/mL; Cytosolic cAMP-PDE activity ([3]; MBED 50 μM): 31.6 ± 0.7 pmol/min/mL; Membrane cAMP-PDE activity ([3]; MBED 50 μM): 23.2 pmol/min/mL; inhibition of PDEs ([3]; MBED 5 and 50 μM, Table 1): did not inhibit PDEs; potency in stimulating insulin secretion relative to caffeine ([4]; 11.2 mM glucose): about 400 times; insulin secretion ([4]; MBED 6 μM, 3 mM glucose, FIG. 5A): no stimulation of insulin secretion; insulin secretion ([4]; MBED 6 μM, 11.2 mM glucose, FIG. 5A): almost doubled the insulin secretion; dose response of insulin secretion ([4]; MBED 0.1 to 100 μM, 11.2 mM glucose, FIG. 5B): stimulated insulin secretion in a does-dependent manner; potency relative to caffeine in islets ([5]; 6 μM MBED vs 2.5 mM caffeine): clearly more potent than caffeine; reversal of stimulated secretion on wash out (lack of major toxic effect) ([5]; 11.2 mM glucose): reversed completely on wash out; stimulation of insulin secretion from islets ([5]; 11.2 mM glucose): persistently stimulated both the first- and second-phases of insulin secretion; periodic amplified Ca2+ release in β-cells (summary of screening) [6]: elicit periodic amplified Ca^2+ release

**Q.** For `Cn1cnc2c(=O)[nH]c(=O)n(C)c21` [3,9-dimethylxanthine], which “inhibition of cAMP-PDEs” value [3] is on record?
**A.** slightly less potent than caffeine in inhibiting cAMP-PDEs

**Q.** And the insulin secretion [4, 8]?
**A.** equally effective as caffeine in stimulating insulin secretion

**Q.** What about the insulin secretion rate ([5]; 11.2 mM glucose) of the same compound?
**A.** 2.76±0.81 ng/min/50 islets

**Q.** And the “stimulation of insulin secretion from islets” value ([5]; 11.2 mM glucose)?
**A.** no significant stimulatory effect

**Q.** With ryanodine as the compound, how does the “effect on glucose-induced insulin secretion” value ([4]; 100 μM ryanodine, 1 hr exposure) read?
**A.** did not alter the glucose-induced insulin secretion

**Q.** What about the “insulin secretion rate (glucose-induced)” value ([4]; 100 μM ryanodine, 1 hr exposure, n=4) of the same compound?
**A.** 193±11 ng/10^6 cell/hr

**Q.** What about the insulin secretion rate ([4]; caffeine 0.75 mM plus 100 μM ryanodine) of the same compound?
**A.** 354±34 ng/10^6 cell/hr

**Q.** What does the source list for `C/C=C(/C)C(=O)O[C@H]1C(C)=C2[C@H]([C@@H]1OC(=O)CCCCCCC)[C@@](C)(OC(C)=O)C[C@H](OC(=O)CCC)[C@@]1(O)[C@H]2OC(=O)[C@@]1(C)O` [thapsigargin]?
**A.** basal insulin secretion ([4]; thapsigargin-treated (Ca2+-depleted) cells): not different compared to that in controls cells; effect on glucose-dependent caffeine-stimulated secretion ([4]; thapsigargin-treated (ER Ca2+ depleted) cells, caffeine 0.75 mM, FIG. 11A): significantly reduced but not abolished

**Q.** For `Cn1c(=O)c2ncn(C)c2n(C)c1=O` [isocaffeine], which “inhibition of cAMP-PDEs” value [3] is on record?
**A.** did not inhibit cAMP-PDEs

**Q.** And the insulin secretion [4, 8]?
**A.** stimulated insulin secretion significantly

**Q.** And the insulin secretion rate ([5]; 11.2 mM glucose)?
**A.** 1.36±0.35 ng/min/50 islets

**Q.** What about the “stimulation of insulin secretion from islets” value ([5]; 11.2 mM glucose) of the same compound?
**A.** no significant stimulatory effect

**Q.** What about the “periodic amplification of Ca2+ signals (CICR)” value [6, 9] of the same compound?
**A.** gave rise to periodic amplifications of Ca^2+ signals

**Q.** For `O=C1CN(/N=C/c2ccc(-c3ccc([N+](=O)[O-])cc3)o2)C(O)=N1` [dantrolene], which “effect on glucose-dependent stimulation of insulin secretion by caffeine” value ([4]; dantrolene 75 μM, FIG. 11B) is on record?
**A.** abolished

**Q.** What does the source list for `Cn1c(=O)c2c(ncn2C)n(C)c1=O` [caffeine]?
**A.** effect on cAMP content [7]: did not increase cAMP content; change in [Ca2+]i ([1]; caffeine 5 mM, FIG. 10 upper panel): transient increase on [Ca^2+]i; concentration giving maximal stimulation of secretion ([4]; FIG. 9B): 0.25 to 0.75 mM; insulin secretion ([4]; caffeine 0.25 mM, FIG. 9B): near-maximal stimulation of insulin secretion; insulin secretion ([4]; caffeine 0.75 mM, KATP channel bypassed by diazoxide and KCl, FIG. 8B): Stimulation of insulin secretion by caffeine (0.75 mM) was observed; insulin secretion rate ([4]; caffeine 0.75 mM, without ryanodine): 328±22 ng/10^6 cell/hr; insulin secretion ([4]; caffeine 2.5 mM, 3 mM glucose, 1 hr, FIG. 8A): did not alter insulin secretion; insulin secretion [4, 8]: stimulated secretion; insulin secretion rate ([5]; 11.2 mM glucose): 5.06±1.17 ng/min/50 islets; stimulation of insulin secretion from islets ([5]; 11.2 mM glucose): persistently stimulated both the first- and second-phases of insulin secretion; periodic amplified Ca2+ release in β-cells (summary of screening) [6]: elicit periodic amplified Ca^2+ release; periodic amplification of Ca2+ signals (CICR) [6, 9]: gave rise to periodic amplifications of Ca^2+ signals

**Q.** For “glucagons-like peptide 1: test substance glucagons-like peptide 1 (HAEGTFTSDVSSYLEGQAAKEFIAWLVKGR; ends and bridges not checked; UniProt P01275 98-127, looked up)”, which “periodic amplification of Ca2+ signals (CICR)” value ([6]; Example 5, FIG. 2: 30 mM KCl, 10 μM D600 or verapamil, 13 mM glucose) is on record?
**A.** gave rise to periodic amplification of Ca^2+ signals
